Measurements published in patent publication US5057493A, “Novel antibiotics R106” (priority 1988, dated 1991).
Starred links: 1 amine or outer side, 2 acyl side, 3 side chain; linkers in the order of their positions; H or OH if unused. Non-standard residues stand in square brackets, D forms with d. Residues, ends and D or L forms follow the SMILES beside them. ξ: configuration not given here. X2 = CN(C(C(=O)[*:2])C(O)c1ccccc1)[*:1]; X4 = CC(C(=O)O)C(C(=O)[*:2])N(C)[*:1]; ξNMeVal(3-OH) = CNC(C(=O)O)C(C)(C)O; X3 = C=C(C)C(C(=O)[*:2])N(C)[*:1]; X5 = CC(CO)C(C(=O)[*:2])N(C)[*:1]; X6 = CC(C)=C(C(=O)[*:2])N(C)[*:1]; NMeF = CN[CH](Cc1ccccc1)C(=O)O; X1 = CCC(C)C(O[*:1])C(=O)[*:2]; NMeV = CN[CH](C(=O)O)C(C)C; Hiv = CC(C)[CH](O)C(=O)O

Assays:
[1] = system: Candida glabrata TIMM 1062; experiment: MIC by agar dilution method, casitone agar; type: cell-based; conditions: Table 5
Protocol: (§1) The minimum inhibitory concentration (MIC) of each antibiotic against various fungi was determined by the agar dilution method using casitone agar medium (2.0% glucose, 0.9% bacto-casitone, 1.0% yeast extract, 0.1% KH2 PO4, 0.1% Na2 HPO4, 1.0% sodium citrate, 2.0% agar: concentrations are all by w/v).
(§2) Each minimum growth inhibitory concentration was determined after culturing at 27° C. for 4 days.

[2] = system: Cryptococcus neoformans TIMM 0354; experiment: MIC by agar dilution method, casitone agar; type: cell-based; conditions: Table 5
Protocol: as §1, §2

[3] = system: Candida albicans TIMM 1768; experiment: MIC by agar dilution method, casitone agar; type: cell-based; conditions: Table 5
Protocol: as §1, with “The antibiotics R106 of the present invention are active against various fungi including pathogenic fungi. The” for “The”

[4] = system: Candida albicans TIMM 0171; experiment: MIC by agar dilution method, casitone agar; type: cell-based; conditions: Table 5
Protocol: as §1, with “The antibiotics R106 of the present invention are active against various fungi including pathogenic fungi. The” for “The”

[5] = system: Candida albicans TIMM 0136; experiment: MIC by agar dilution method, casitone agar; type: cell-based; conditions: Table 5
Protocol: as §1, with “The antibiotics R106 of the present invention are active against various fungi including pathogenic fungi. The” for “The”

Candida kefyr TIMM 0301 = experiment: MIC by agar dilution method, casitone agar; type: cell-based; conditions: Table 5
Protocol: as §1, with “The antibiotics R106 of the present invention are active against various fungi including pathogenic fungi. The” for “The”

[6] = 50% lethal dose (LD50) in mice; type: in vivo
Excerpt: All of the antibiotics R106 show low toxicity. The results of 50% lethal dose (LD50) obtained when each of representative compounds of the present invention was given to mice intravenously, intraperitoneally and orally are shown in Table 7.

Row | Structure (SMILES) | minimum inhibitory concentration (MIC) [1] | minimum inhibitory concentration (MIC) [2] | minimum inhibitory concentration (MIC) [3] | minimum inhibitory concentration (MIC) [4] | minimum inhibitory concentration (MIC) [5] | minimum inhibitory concentration (MIC) (Candida kefyr TIMM 0301) | LD50 ([6]; i.p.) [mg/kg] | LD50 ([6]; i.v.) [mg/kg] | LD50 ([6]; p.o.) [mg/kg]
1 | CCC(C)C1NC(=O)C2CCCN2C(=O)C(Cc2ccccc2)N(C)C(=O)C(Cc2ccccc2)NC(=O)C(C(C)C)N(C)C(=O)C(C(C)CC)OC(=O)C(=C(C)C)N(C)C(=O)C(CC(C)C)NC(=O)C(C(C)C)N(C)C1=O (stereo not drawn) [Compound 18] (cyclo([X6][X1][NMeV]F[NMeF]PI[NMeV]L); configuration not given here) | > 25 | > 25 | 25 | 3.12 | 6.25 | 25 | – | – | –
2 | CCC(C)C1NC(=O)C2CCCN2C(=O)C(Cc2ccccc2)N(C)C(=O)C(Cc2ccccc2)NC(=O)C(C(C)C)N(C)C(=O)C(C(C)CC)OC(=O)C(C(O)c2ccccc2)N(C)C(=O)C(CC(C)C)NC(=O)C(C(C)C)N(C)C1=O (stereo not drawn) [Compound 15] (cyclo([X2][X1][NMeV]F[NMeF]PI[NMeV]L); configuration not given here) | > 25 | 25 | 25 | 25 | 12.5 | > 25 | – | – | –
3 | CCC(C)C1NC(=O)C2CCCN2C(=O)C(Cc2ccccc2)N(C)C(=O)C(Cc2ccccc2)NC(=O)C(C(C)C)N(C)C(=O)C(C(C)CC)OC(=O)C(C(C)C)N(C)C(=O)C(CC(C)C)NC(=O)C(C(C)C)NC1=O (stereo not drawn) [Compound 16] (cyclo([X1][NMeV]F[NMeF]PIVL[NMeV]); configuration not given here) | > 25 | > 25 | 25 | 1.56 | 3.12 | 3.12 | – | – | –
4 | CCC(C)C1OC(=O)C(C(C)(C)O)N(C)C(=O)C(CC(C)C)NC(=O)C(C(C)C)N(C)C(=O)C(C(C)C)NC(=O)C2CCCN2C(=O)C(Cc2ccccc2)N(C)C(=O)C(Cc2ccccc2)NC(=O)C(C(C)C)N(C)C1=O (stereo not drawn) [Compound 3] (cyclo([ξNMeVal(3-OH)][X1][NMeV]F[NMeF]PV[NMeV]L); configuration not given here) | 0.20 | 1.56 | 1.56 | 0.10 | 0.10 | 0.20 | – | – | –
5 | CCC(C)C1NC(=O)C2CCCN2C(=O)C(Cc2ccccc2)N(C)C(=O)C(Cc2ccccc2)NC(=O)C(C(C)C)N(C)C(=O)C(C(C)C)OC(=O)C(C(C)(C)O)N(C)C(=O)C(CC(C)C)NC(=O)C(C(C)C)N(C)C1=O (stereo not drawn) [Compound 2] (cyclo([ξNMeVal(3-OH)][Hiv][NMeV]F[NMeF]PI[NMeV]L); configuration not given here) | 0.20 | 1.56 | 0.78 | 0.10 | 0.10 | 0.20 | > 200 | > 100 | > 200
6 | CCC(C)C1NC(=O)C2CCCN2C(=O)C(C(O)c2ccccc2)N(C)C(=O)C(Cc2ccccc2)NC(=O)C(C(C)C)N(C)C(=O)C(C(C)CC)OC(=O)C(C(C)(C)O)N(C)C(=O)C(CC(C)C)NC(=O)C(C(C)C)N(C)C1=O (stereo not drawn) [Compound 5] (cyclo([X2]PI[NMeV]L[ξNMeVal(3-OH)][X1][NMeV]F); configuration not given here) | 0.20 | 3.12 | ≤ 0.05 | ≤ 0.05 | ≤ 0.05 | 0.20 | > 200 | > 100 | > 200
7 | CCC(C)C1OC(=O)C(C(C)C)N(C)C(=O)C(CC(C)C)NC(=O)C(C(C)C)N(C)C(=O)C(C(C)C)NC(=O)C2CCCN2C(=O)C(Cc2ccccc2)N(C)C(=O)C(Cc2ccccc2)NC(=O)C(C(C)C)N(C)C1=O (stereo not drawn) [Compound 12] (cyclo([X1][NMeV]F[NMeF]PV[NMeV]L[NMeV]); configuration not given here) | > 25 | > 25 | 25 | 6.25 | 6.25 | 12.5 | – | – | –
8 | CCC(C)C1NC(=O)C2CCCN2C(=O)C(Cc2ccccc2)N(C)C(=O)C(Cc2ccccc2)NC(=O)C(C(C)C)N(C)C(=O)C(C(C)CC)OC(=O)C(C(C)C(=O)O)N(C)C(=O)C(CC(C)C)NC(=O)C(C(C)C)N(C)C1=O (stereo not drawn) [Compound 10] (cyclo([X4][X1][NMeV]F[NMeF]PI[NMeV]L); configuration not given here) | 3.12 | 25 | 12.5 | 0.78 | 0.78 | 3.12 | – | – | –
9 | CCC(C)C1NC(=O)C2CCCN2C(=O)C(Cc2ccccc2)N(C)C(=O)C(Cc2ccccc2)NC(=O)C(C(C)C)N(C)C(=O)C(C(C)CC)OC(=O)C(Cc2ccccc2)N(C)C(=O)C(CC(C)C)NC(=O)C(C(C)C)N(C)C1=O (stereo not drawn) [Compound 17] (cyclo([X1][NMeV]F[NMeF]PI[NMeV]L[NMeF]); configuration not given here) | > 25 | > 25 | > 25 | 25 | 12.5 | > 25 | – | – | –
10 | CCC(C)C1NC(=O)C2CCCN2C(=O)C(Cc2ccccc2)N(C)C(=O)C(Cc2ccccc2)NC(=O)C(C(C)C)N(C)C(=O)C(C(C)C)OC(=O)C(C(C)C)N(C)C(=O)C(CC(C)C)NC(=O)C(C(C)C)N(C)C1=O (stereo not drawn) [Compound 11] (cyclo(F[NMeF]PI[NMeV]L[NMeV][Hiv][NMeV]); configuration not given here) | > 25 | > 25 | 1.56 | 1.56 | 1.56 | 6.25 | – | – | –
11 | C=C(C)C1C(=O)OC(C(C)CC)C(=O)N(C)C(C(C)C)C(=O)NC(Cc2ccccc2)C(=O)N(C)C(Cc2ccccc2)C(=O)N2CCCC2C(=O)NC(C(C)CC)C(=O)N(C)C(C(C)C)C(=O)NC(CC(C)C)C(=O)N1C (stereo not drawn) [Compound 14] (cyclo([X3][X1][NMeV]F[NMeF]PI[NMeV]L); configuration not given here) | 12.5 | > 25 | 12.5 | 1.56 | 1.56 | 6.25 | – | – | –
12 | CCC(C)C1NC(=O)C2CCCN2C(=O)C(Cc2ccccc2)N(C)C(=O)C(Cc2ccccc2)NC(=O)C(C(C)C)N(C)C(=O)C(C(C)CC)OC(=O)C(C(C)CO)N(C)C(=O)C(CC(C)C)NC(=O)C(C(C)C)N(C)C1=O (stereo not drawn) [Compound 4] (cyclo([X5][X1][NMeV]F[NMeF]PI[NMeV]L); configuration not given here) | 1.56 | 25 | 0.39 | 0.10 | 0.20 | 0.78 | – | – | –
13 | CCC(C)C1NC(=O)C2CCCN2C(=O)C(Cc2ccccc2)N(C)C(=O)C(Cc2ccccc2)NC(=O)C(C(C)C)N(C)C(=O)C(C(C)CC)OC(=O)C(C(C)(C)O)N(C)C(=O)C(CC(C)C)NC(=O)C(C(C)C)NC1=O (stereo not drawn) [Compound 6] (cyclo([ξNMeVal(3-OH)][X1][NMeV]F[NMeF]PIVL); configuration not given here) | 1.56 | 25 | 0.39 | 0.39 | 0.78 | 0.39 | – | – | –
14 | CCC(C)C1NC(=O)C2CCCN2C(=O)C(Cc2ccccc2)NC(=O)C(Cc2ccccc2)NC(=O)C(C(C)C)N(C)C(=O)C(C(C)CC)OC(=O)C(C(C)C)N(C)C(=O)C(CC(C)C)NC(=O)C(C(C)C)N(C)C1=O (stereo not drawn) [Compound 13] (cyclo([X1][NMeV]FFPI[NMeV]L[NMeV]); configuration not given here) | > 25 | > 25 | 12.5 | 12.5 | 6.25 | 25 | – | – | –
15 | CCC(C)C1NC(=O)C2CCCN2C(=O)C(Cc2ccccc2)N(C)C(=O)C(Cc2ccccc2)NC(=O)C(C(C)C)N(C)C(=O)C(C(C)CC)OC(=O)C(C(C)C)NC(=O)C(CC(C)C)NC(=O)C(C(C)C)N(C)C1=O (stereo not drawn) [Compound 8] (cyclo([X1][NMeV]F[NMeF]PI[NMeV]LV); configuration not given here) | > 25 | > 25 | 12.5 | 1.56 | 1.56 | > 25 | – | – | –
